Reference: patent US8999940B2 (Ipsen Pharma S.A.S., priority 2008, dated 2015)
Where no end group is shown, it is not given here. [ ]: non-standard residue; d: D form. Phe(4-Me) = Cc1ccc(C[C@H](N)C(=O)O)cc1; Ac5c = NC1(C(=O)O)CCCC1; Aib = CC(C)(N)C(=O)O

Assays:
[1] = Human plasma half-life assay; type: in vitro ADME; details: 37° C., LC-MS, read-out: Human Plasma T½ (converted)
Experimental: (§1) B. Human and Rat Plasma Half-Life Assay
(§2) 50 μl was removed at various times, like at 0, 1, 2, 3, 4, 8, 24, 32, 48, 56, 72 hours, mixed with 5 μl formic acid and 150 μL acetonitrile in a microcentrifuge tube, vertexed, and centrifuged for 10 minutes at 10 K rpm. The supernatant was transferred to an injection vial and analyzed by LC-MS. The LC-MS system consisted of an API4000 mass spectrometer with an ESI probe. Positive ion mode and full scan detection were used. HPLC separation was carried out on a Luna 3μ. C8 (2), 2×30 mm column with a gradient from 90% A to 90% B in 10 minutes at a flow rate of 0.3 ml/min. Buffer A was 1% formic acid in water and buffer B was 1% formic acid acetonitrile.

[2] = biological target: T1, human recombinant GIP receptor (Homo sapiens, UniProt P48546); assay: In vitro hGIP receptor binding assay
T1 construct: expressed in transfected cells; host or cells: CHO-K1 clonal cells (membrane preparation)
T1 sequence (P48546 22-466): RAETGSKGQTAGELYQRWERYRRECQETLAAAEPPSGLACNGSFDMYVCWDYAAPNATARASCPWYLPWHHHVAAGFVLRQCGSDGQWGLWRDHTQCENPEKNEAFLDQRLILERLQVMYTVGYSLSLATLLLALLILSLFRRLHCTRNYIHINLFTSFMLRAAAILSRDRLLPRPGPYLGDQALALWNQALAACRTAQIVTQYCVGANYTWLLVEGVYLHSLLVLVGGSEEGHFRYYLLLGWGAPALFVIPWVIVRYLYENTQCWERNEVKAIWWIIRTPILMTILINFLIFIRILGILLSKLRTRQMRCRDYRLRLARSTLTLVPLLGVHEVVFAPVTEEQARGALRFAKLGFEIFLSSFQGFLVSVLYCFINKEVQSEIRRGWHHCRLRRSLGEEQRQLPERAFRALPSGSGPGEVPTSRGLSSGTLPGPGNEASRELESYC
Experimental: A. In Vitro hGIP Receptor Binding Assay […] The incubations were terminated by rapid filtration through GF/C filters (pre-soaked in 0.5% polyethylenimine) using a Brandel filtration manifold. Each tube and filter were then washed three times with 5-ml aliquots of ice-cold buffer.

[3] = Rat plasma half-life assay; type: in vitro ADME; details: 37° C., LC-MS, read-out: Rat Plasma T½ (converted)
Experimental: as §1, §2

Compound | half-life at 0.1 mg/ml [1] [h] | Ki [2] [nM] | half-life at 0.1 mg/ml [3] [h]
CCCC[C@H](NC(=O)C(C)(C)NC(=O)[C@@H](NC(=O)[C@H](CO)NC(=O)[C@H](Cc1ccc(O)cc1)NC(=O)[C@H](CC(=O)O)NC(=O)[C@H](CO)NC(=O)[C@@H](NC(=O)[C@H](Cc1ccccc1)NC(=O)[C@@H](NC(=O)CNC(=O)[C@H](CCC(=O)O)NC(=O)C(C)(C)NC(=O)[C@@H](N)Cc1c[nH]cn1)[C@@H](C)O)[C@@H](C)CC)[C@@H](C)CC)C(=O)N[C@@H](CC(=O)O)C(=O)N[C@@H](CCCCN)C(=O)N[C@H](C(=O)N[C@@H](Cc1c[nH]cn1)C(=O)N[C@@H](CCC(N)=O)C(=O)N[C@@H](CCC(N)=O)C(=O)N[C@@H](CC(=O)O)C(=O)N[C@@H](Cc1ccccc1)C(=O)N[C@H](C(=O)N[C@@H](CC(N)=O)C(=O)N[C@@H](Cc1c[nH]c2ccccc12)C(=O)N[C@@H](CC(C)C)C(=O)N[C@@H](CC(C)C)C(=O)N[C@@H](C)C(=O)N[C@@H](CCC(N)=O)C(=O)N[C@@H](CCCCN)C(=O)NCC(=O)N[C@@H](CCCCN)C(=O)N[C@@H](CCCCN)C(=O)N[C@@H](CC(N)=O)C(=O)N[C@@H](CC(=O)O)C(=O)N[C@@H](Cc1c[nH]c2ccccc12)C(=O)N[C@@H](CCCCN)C(=O)N[C@@H](Cc1c[nH]cn1)C(=O)N[C@@H](CC(N)=O)C(=O)N[C@H](C(=O)N[C@H](C(=O)N[C@@H](CCC(N)=O)C(=O)O)[C@@H](C)O)[C@@H](C)CC)C(C)C)[C@@H](C)CC [Example 10, (His^1, Aib^2, 13, Nle^14)hGIP(1-42)-OH] | 71.4 | 3.33 | 9.2
CC[C@H](C)[C@H](NC(=O)[C@H](CCCCN)NC(=O)[C@H](CC(=O)O)NC(=O)[C@H](CCSC)NC(=O)[C@H](C)NC(=O)[C@@H](NC(=O)C1(NC(=O)[C@H](Cc2ccc(O)cc2)NC(=O)[C@H](CC(=O)O)NC(=O)[C@H](CO)NC(=O)[C@@H](NC(=O)[C@H](Cc2ccccc2)NC(=O)[C@@H](NC(=O)CNC(=O)[C@H](CCC(=O)O)NC(=O)C(C)(C)NC(=O)[C@@H](N)Cc2ccc(C#N)cc2)[C@@H](C)O)[C@@H](C)CC)CCCC1)[C@@H](C)CC)C(=O)N[C@@H](Cc1c[nH]cn1)C(=O)N[C@@H](CCC(N)=O)C(=O)N[C@@H](CCC(N)=O)C(=O)N[C@@H](CC(=O)O)C(=O)N[C@@H](Cc1ccccc1)C(=O)N[C@H](C(=O)N[C@@H](CC(N)=O)C(=O)N[C@@H](Cc1c[nH]c2ccccc12)C(=O)N[C@@H](CC(C)C)C(=O)N[C@@H](CC(C)C)C(=O)N[C@@H](C)C(=O)N[C@@H](CCC(N)=O)C(=O)N[C@@H](CCCCN)C(=O)NCC(=O)N[C@@H](CCCCN)C(=O)N[C@@H](CCCCN)C(=O)N[C@@H](CC(N)=O)C(=O)N[C@@H](CC(=O)O)C(=O)N[C@@H](Cc1c[nH]c2ccccc12)C(=O)N[C@@H](CCCCN)C(=O)N[C@@H](Cc1c[nH]cn1)C(=O)N[C@@H](CC(N)=O)C(=O)N[C@H](C(=O)NC1(C(=O)N[C@@H](CCC(N)=O)C(=O)O)CCCC1)[C@@H](C)CC)C(C)C [Example 38, (4CN-Phe^1, Aib^2, A5c^11, 41)hGIP(1-42)-OH] | 16.4 | 14.4 | > 72
[Phe(4-Me)][Aib]EGTFISDY[Ac5c]IAMDKIHQQDFVNWLLAQKGKKNDWKHNITQH-OH [Example 78, (4Me-Phe^1, Aib^2, A5c^11, His^43)hGIP(1-43)-OH] | 14.9 | 9.13 | > 52
CC[C@H](C)[C@H](NC(=O)[C@H](CCCCN)NC(=O)[C@H](CC(=O)O)NC(=O)C1(NC(=O)[C@H](C)NC(=O)[C@@H](NC(=O)C2(NC(=O)[C@H](Cc3ccc(O)cc3)NC(=O)[C@H](CC(=O)O)NC(=O)[C@H](CO)NC(=O)[C@@H](NC(=O)[C@H](Cc3ccccc3)NC(=O)[C@@H](NC(=O)CNC(=O)[C@H](CCC(=O)O)NC(=O)C(C)(C)NC(=O)[C@@H](N)Cc3c(C)cc(O)cc3C)[C@@H](C)O)[C@@H](C)CC)CCCC2)[C@@H](C)CC)CCCC1)C(=O)N[C@@H](Cc1c[nH]cn1)C(=O)N[C@@H](CCC(N)=O)C(=O)N[C@@H](CCC(N)=O)C(=O)N[C@@H](CC(=O)O)C(=O)N[C@@H](Cc1ccccc1)C(=O)N[C@H](C(=O)N[C@@H](CC(N)=O)C(=O)N[C@@H](Cc1c[nH]c2ccccc12)C(=O)N[C@@H](CC(C)C)C(=O)N[C@@H](CC(C)C)C(=O)N[C@@H](C)C(=O)N[C@@H](CCC(N)=O)C(=O)N[C@@H](CCCCN)C(=O)NCC(=O)N[C@@H](CCCCN)C(=O)N[C@@H](CCCCN)C(=O)N[C@@H](CC(N)=O)C(=O)N[C@@H](CC(=O)O)C(=O)N[C@@H](Cc1c[nH]c2ccccc12)C(=O)N[C@@H](CCCCN)C(=O)N[C@@H](Cc1c[nH]cn1)C(=O)N[C@@H](CC(N)=O)C(=O)N[C@H](C(=O)N[C@H](C(=O)N[C@@H](CCC(N)=O)C(=O)N[C@@H](Cc1c[nH]cn1)C(=O)O)[C@@H](C)O)[C@@H](C)CC)C(C)C [Example 54, (2,6Me-Tyr^1, Aib^2, A5c^11, 14, His^43)hGIP(1-43)-OH] | > 50 | 50.2 | 21.5
CC[C@H](C)[C@H](NC(=O)[C@H](CCCCN)NC(=O)[C@H](CC(=O)O)NC(=O)[C@H](CCSC)NC(=O)[C@H](C)NC(=O)[C@@H](NC(=O)C1(NC(=O)[C@H](Cc2ccc(O)cc2)NC(=O)[C@H](CC(=O)O)NC(=O)[C@H](CO)NC(=O)[C@@H](NC(=O)[C@H](Cc2ccccc2)NC(=O)[C@@H](NC(=O)CNC(=O)[C@H](CCC(=O)O)NC(=O)C(C)(C)NC(=O)[C@@H](N)Cc2ccc(O)c(O)c2)[C@@H](C)O)[C@@H](C)CC)CCCC1)[C@@H](C)CC)C(=O)N[C@@H](Cc1c[nH]cn1)C(=O)N[C@@H](CCC(N)=O)C(=O)N[C@@H](CCC(N)=O)C(=O)N[C@@H](CC(=O)O)C(=O)N[C@@H](Cc1ccccc1)C(=O)N[C@H](C(=O)N[C@@H](CC(N)=O)C(=O)N[C@@H](Cc1c[nH]c2ccccc12)C(=O)N[C@@H](CC(C)C)C(=O)N[C@@H](CC(C)C)C(=O)N[C@@H](C)C(=O)N[C@@H](CCC(N)=O)C(=O)N[C@@H](CCCCN)C(=O)NCC(=O)N[C@@H](CCCCN)C(=O)N[C@@H](CCCCN)C(=O)N[C@@H](CC(N)=O)C(=O)N[C@@H](CC(=O)O)C(=O)N[C@@H](Cc1c[nH]c2ccccc12)C(=O)N[C@@H](CCCCN)C(=O)N[C@@H](Cc1c[nH]cn1)C(=O)N[C@@H](CC(N)=O)C(=O)N[C@H](C(=O)NC1(C(=O)N[C@@H](CCC(N)=O)C(=O)O)CCCC1)[C@@H](C)CC)C(C)C [Example 27, (30H-Tyr^1, Aib^2, A5c^11, 41)hGIP(1-42)-OH] | 7 | 6.69 | 5.1
CC[C@H](C)[C@H](NC(=O)[C@H](CCCCN)NC(=O)[C@H](CC(=O)O)NC(=O)[C@H](CCSC)NC(=O)[C@H](C)NC(=O)[C@@H](NC(=O)C1(NC(=O)[C@H](Cc2ccc(O)cc2)NC(=O)[C@H](CC(=O)O)NC(=O)[C@H](CO)NC(=O)[C@@H](NC(=O)[C@H](Cc2ccccc2)NC(=O)[C@@H](NC(=O)CNC(=O)[C@H](CCC(=O)O)NC(=O)C(C)(C)NC(=O)[C@@H](N)Cc2ccncc2)[C@@H](C)O)[C@@H](C)CC)CCCC1)[C@@H](C)CC)C(=O)N[C@@H](Cc1c[nH]cn1)C(=O)N[C@@H](CCC(N)=O)C(=O)N[C@@H](CCC(N)=O)C(=O)N[C@@H](CC(=O)O)C(=O)N[C@@H](Cc1ccccc1)C(=O)N[C@H](C(=O)N[C@@H](CC(N)=O)C(=O)N[C@@H](Cc1c[nH]c2ccccc12)C(=O)N[C@@H](CC(C)C)C(=O)N[C@@H](CC(C)C)C(=O)N[C@@H](C)C(=O)N[C@@H](CCC(N)=O)C(=O)N[C@@H](CCCCN)C(=O)NCC(=O)N[C@@H](CCCCN)C(=O)N[C@@H](CCCCN)C(=O)N[C@@H](CC(N)=O)C(=O)N[C@@H](CC(=O)O)C(=O)N[C@@H](Cc1c[nH]c2ccccc12)C(=O)N[C@@H](CCCCN)C(=O)N[C@@H](Cc1c[nH]cn1)C(=O)N[C@@H](CC(N)=O)C(=O)N[C@H](C(=O)NC1(C(=O)N[C@@H](CCC(N)=O)C(=O)O)CCCC1)[C@@H](C)CC)C(C)C [Example 33, (4-Pal^1, Aib^2, A5c^11, 41)hGIP(1-42)-OH] | 32.8 | 8.14 | 15.5
